biological target: T1, ATR kinase (Homo sapiens, UniProt Q13535); experiment: Inhibitory effect on ATR kinase activity (Caliper mobility shift, FAM-labeled RAD17 peptide substrate); format: biochemical; settings: 1 nM ATR kinase (Eurofins), 28°C for 3 hours, maximum concentration 1 µM, 10 concentrations, read-out: ATR kinase IC50
T1 construct: purchased Eurofins 14-953
Description: Test Example 1: Inhibitory effect of the compounds of the present disclosure on ATR kinase activity
Test compounds to be tested were serially diluted with DMSO (maximum concentration 1 µM, 10 concentrations with 3-fold serial dilution) and added to the wells of a 384-well reaction plate (Corning, #4512). 1 nM ATR kinase (Eurofins, #14-953), 5 mM substrate (FAM-labeled RAD17 peptide, FAM-ASELPASQPQPFSAKKK), 5 mM ATP and the compounds with corresponding concentrations reacted in a kinase reaction solution (50 mM HEPES, pH 7.5; 0.0015% Brij-35; 10 mM MnCl2, total volume of 20 µL) at 28°C for 3 hours. The reaction was terminated by adding 30 µL of stop solution (100 mM HEPES, pH 7.5; 0.015% Brij-35; 0.2% Coating Reagent #3, PerkinElmer; 50 mM EDTA). The reaction plate was placed on a Caliper instrument (PerkinElmer) for testing. The relative inhibitory activity of each compound concentration group was calculated using the following formula: % Inhibition = (Conversion rate of the blank control group without compound added - Conversion rate of the test compound group) / (Conversion rate of the blank control group - […]). The IC50 values were calculated using GraphPad analysis and fitted. […] Table 1. Inhibitory effect (IC50) of compounds on ATR kinase activity.

T1 sequence (Q13535 whole entry): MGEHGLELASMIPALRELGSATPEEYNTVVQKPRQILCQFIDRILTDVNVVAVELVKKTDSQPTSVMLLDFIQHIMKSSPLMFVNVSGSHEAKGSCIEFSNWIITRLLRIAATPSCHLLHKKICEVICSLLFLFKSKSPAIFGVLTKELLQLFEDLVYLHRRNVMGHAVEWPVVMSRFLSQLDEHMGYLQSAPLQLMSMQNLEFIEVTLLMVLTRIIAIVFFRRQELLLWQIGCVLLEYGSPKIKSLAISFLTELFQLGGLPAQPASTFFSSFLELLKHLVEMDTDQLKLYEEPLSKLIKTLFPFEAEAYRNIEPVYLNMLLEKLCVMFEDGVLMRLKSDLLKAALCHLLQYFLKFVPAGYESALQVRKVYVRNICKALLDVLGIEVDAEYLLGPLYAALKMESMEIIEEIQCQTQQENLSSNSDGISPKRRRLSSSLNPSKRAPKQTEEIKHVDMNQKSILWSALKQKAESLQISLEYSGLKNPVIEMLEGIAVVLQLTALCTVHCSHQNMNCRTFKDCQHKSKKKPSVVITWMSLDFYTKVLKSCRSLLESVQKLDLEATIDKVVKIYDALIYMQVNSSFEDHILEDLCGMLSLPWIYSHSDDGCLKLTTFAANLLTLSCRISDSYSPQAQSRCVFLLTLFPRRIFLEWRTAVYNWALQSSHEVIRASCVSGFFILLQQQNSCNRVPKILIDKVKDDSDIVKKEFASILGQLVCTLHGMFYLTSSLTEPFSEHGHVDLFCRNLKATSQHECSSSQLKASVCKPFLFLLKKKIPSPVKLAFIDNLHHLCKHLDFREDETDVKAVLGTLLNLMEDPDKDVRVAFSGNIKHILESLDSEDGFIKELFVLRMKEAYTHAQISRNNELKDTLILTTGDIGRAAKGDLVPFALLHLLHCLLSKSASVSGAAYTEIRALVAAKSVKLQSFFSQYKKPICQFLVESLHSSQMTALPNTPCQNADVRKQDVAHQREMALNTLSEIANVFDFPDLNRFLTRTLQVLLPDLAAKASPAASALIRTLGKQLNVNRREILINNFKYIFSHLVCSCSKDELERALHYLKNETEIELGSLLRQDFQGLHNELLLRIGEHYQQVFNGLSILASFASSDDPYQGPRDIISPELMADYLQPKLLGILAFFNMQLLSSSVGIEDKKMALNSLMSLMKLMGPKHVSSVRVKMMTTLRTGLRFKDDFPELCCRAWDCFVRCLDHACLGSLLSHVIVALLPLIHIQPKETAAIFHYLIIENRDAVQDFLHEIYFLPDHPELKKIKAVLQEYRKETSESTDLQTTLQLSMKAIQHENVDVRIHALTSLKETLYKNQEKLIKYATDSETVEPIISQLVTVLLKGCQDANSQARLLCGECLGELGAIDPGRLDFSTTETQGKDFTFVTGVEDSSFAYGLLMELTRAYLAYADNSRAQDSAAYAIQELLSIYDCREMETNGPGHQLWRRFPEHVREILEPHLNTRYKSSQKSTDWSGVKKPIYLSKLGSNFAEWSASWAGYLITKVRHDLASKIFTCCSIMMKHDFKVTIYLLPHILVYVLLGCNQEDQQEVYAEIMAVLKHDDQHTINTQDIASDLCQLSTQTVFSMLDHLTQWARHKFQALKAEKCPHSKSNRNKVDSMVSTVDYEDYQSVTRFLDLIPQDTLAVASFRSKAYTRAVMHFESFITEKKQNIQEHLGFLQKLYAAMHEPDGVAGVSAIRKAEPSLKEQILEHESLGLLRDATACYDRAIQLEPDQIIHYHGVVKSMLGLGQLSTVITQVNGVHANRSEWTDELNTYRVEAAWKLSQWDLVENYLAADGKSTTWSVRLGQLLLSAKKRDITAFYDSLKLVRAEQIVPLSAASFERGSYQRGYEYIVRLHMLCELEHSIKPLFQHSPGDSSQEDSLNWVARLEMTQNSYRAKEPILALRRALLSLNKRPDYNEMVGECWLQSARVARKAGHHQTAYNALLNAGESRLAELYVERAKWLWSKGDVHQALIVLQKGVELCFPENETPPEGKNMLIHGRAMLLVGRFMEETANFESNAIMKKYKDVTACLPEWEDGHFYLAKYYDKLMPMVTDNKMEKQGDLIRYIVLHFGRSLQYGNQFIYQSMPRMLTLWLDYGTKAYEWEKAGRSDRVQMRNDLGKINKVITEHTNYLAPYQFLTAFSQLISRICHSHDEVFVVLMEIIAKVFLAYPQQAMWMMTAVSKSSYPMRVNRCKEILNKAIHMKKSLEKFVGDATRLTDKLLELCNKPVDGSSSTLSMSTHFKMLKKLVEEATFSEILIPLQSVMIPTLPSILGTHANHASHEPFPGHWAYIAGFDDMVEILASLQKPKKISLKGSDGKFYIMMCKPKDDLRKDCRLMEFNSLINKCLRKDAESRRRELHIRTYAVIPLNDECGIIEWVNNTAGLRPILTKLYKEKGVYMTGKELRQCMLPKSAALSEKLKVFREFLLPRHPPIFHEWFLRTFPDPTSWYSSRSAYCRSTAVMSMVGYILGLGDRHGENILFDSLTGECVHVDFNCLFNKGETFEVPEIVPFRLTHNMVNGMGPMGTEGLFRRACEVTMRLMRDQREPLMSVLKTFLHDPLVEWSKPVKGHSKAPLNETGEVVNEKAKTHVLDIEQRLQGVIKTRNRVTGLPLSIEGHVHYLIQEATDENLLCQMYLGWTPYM
T1 sequence (Q8WXE1 whole entry partner): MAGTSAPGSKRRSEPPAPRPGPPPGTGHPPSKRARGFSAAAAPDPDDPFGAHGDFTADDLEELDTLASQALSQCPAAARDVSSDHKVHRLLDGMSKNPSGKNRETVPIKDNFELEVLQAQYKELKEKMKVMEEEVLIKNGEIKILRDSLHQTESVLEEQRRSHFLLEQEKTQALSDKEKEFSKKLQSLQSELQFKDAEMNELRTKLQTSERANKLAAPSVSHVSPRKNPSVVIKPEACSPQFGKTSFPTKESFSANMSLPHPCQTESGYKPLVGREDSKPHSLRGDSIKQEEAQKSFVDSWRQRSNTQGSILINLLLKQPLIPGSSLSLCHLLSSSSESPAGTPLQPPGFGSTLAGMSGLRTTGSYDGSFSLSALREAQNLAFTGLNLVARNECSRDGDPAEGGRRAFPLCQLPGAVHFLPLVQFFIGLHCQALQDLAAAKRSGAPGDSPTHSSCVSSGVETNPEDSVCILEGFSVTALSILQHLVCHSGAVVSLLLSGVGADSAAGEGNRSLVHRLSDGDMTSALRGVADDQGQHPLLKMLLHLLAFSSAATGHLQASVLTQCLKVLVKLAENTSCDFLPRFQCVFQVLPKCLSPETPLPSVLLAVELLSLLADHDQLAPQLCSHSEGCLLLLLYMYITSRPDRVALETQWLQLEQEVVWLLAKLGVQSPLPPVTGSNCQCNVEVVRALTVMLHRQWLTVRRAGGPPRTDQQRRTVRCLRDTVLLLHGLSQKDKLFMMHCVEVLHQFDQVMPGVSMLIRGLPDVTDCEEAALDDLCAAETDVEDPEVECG

IC50 [nM]	SMILES
1000 to 2500	C[C@@H]1COCCN1c1cc2c3c(n1)c(-c1cc[nH]n1)nn3CCN2 [Compound 61, (R)-4-(1-(1H-pyrazol-3-yl)-4,5-dihydro-3H-2,2a,5,8-tetraazaacenaphthen-7-yl)-3-methylmorpholine]

same assay, conditions: read-out: ATR kinase IC50, 1 nM ATR kinase (Eurofins), 28°C for 3 hours, maximum concentration 1 µM, 10 concentrations

SMILES	IC50 [nM]
C[C@@H]1COCCN1c1cc2c3c(n1)c(-c1cc[nH]n1)nn3CCC(=O)N2C1CC2(C1)CC(C)(O)C2 (stereo partly drawn) [Compound 94, (R)-6-(6-hydroxy-6-methylspiro[3.3]hept-2-yl)-4-(3-methylmorpholinyl)-2-(1H-pyrazol-3-yl)-8,9-dihydro-1,3,6,9a-tetraazabenzo[cd]azulene-7(6H)-one]	10 to 100

system: LoVo cells; experiment: LoVo cell proliferation assay (CellTiter-Glo); format: cell-based; settings: Homo sapiens, LoVo, 120 h, LoVo cells, 2,000 cells per well, 5 days incubation, CellTiter-Glo; maximum concentration 10 µM, 9 concentrations; read-out: LoVo IC50
Description: Test Example 2: LoVo cell proliferation assay
LoVo (ATCC, #CRL-229) cells in logarithmic growth phase were digested, counted, and plated into 96-well cell culture plates at 2,000 cells per well. The plates containing cells were incubated overnight at 37°C in a 5% CO2 incubator, and then test compounds with 3-fold gradient dilutions (maximum concentration: 10 µM, 9 concentrations) were added. DMSO was used as a blank control. After the LoVo cells containing the compounds or DMSO were incubated for an additional 5 days, an equal volume of CellTiter-Glo reagent (Promega, #7573) was added. After incubation at room temperature for 30 minutes, chemiluminescence was read using an Envision 2105 (PerkinElmer). The cell proliferation inhibition rate (%) for wells treated with each concentration of the compounds was calculated using the following formula. Then, with compound concentration as the horizontal axis and cell proliferation inhibition rate (%) as the vertical axis, GraphPad software was used to plot the data and determine the IC50 values of the test compounds. The results are shown in Table 2, wherein the IC50 ranges are defined as follows: A: ≤ 100 nM; 1000 nM ≥ B > 100 nM; C > 1000 nM.
Cell proliferation inhibition (%) = (1 - luminescence value of compound-treated group / average luminescence value of DMSO blank control group) × 100. Table 2. Inhibitory effect of compounds on LoVo growth

IC50 [nM]	SMILES
100 to 1000	C[C@@H]1COCCN1c1cc2c3c(n1)c(-c1cc[nH]n1)nn3CCC2(C)O (stereo partly drawn) [Compound 71, 6-methyl-4-((R)-3-methylmorpholino)-2-(1H-pyrazol-3-yl)-7,8-dihydro-6H-pyrazolo[4,5,1-ij][1, 7]naphthyridin-6-ol]
100 to 1000	C[C@@H]1COCCN1c1cc2c3c(n1)c(-c1cc[nH]n1)nn3CCN2S(C)(=O)=O [Compound 64]
100 to 1000	CC1c2cc(N3CCOC[C@H]3C)nc3c2c(nn3-c2cc[nH]n2)CCN1c1cnn(C)c1 (stereo partly drawn) [Compound 43, (3R)-3-methyl-4-(6-methyl-7-(1-methyl-1H-pyrazol-4-yl)-2-(1H-pyrazol-3-yl)-6,7,8,9-tetrahydro-2H-1,2,3,7-tetraazabenzo[cd]azulen-4-yl)morpholine]
100 to 1000	CC1c2cc(N3CCOC[C@H]3C)nc3c(-c4cc[nH]n4)nn(c23)CCN1C (single isomer, unassigned) [Compound 59A]
> 1000	C[C@@H]1COCCN1c1cc2c3c(n1)c(-c1cc[nH]n1)nn3CCC2(O)C1CCOCC1 (single isomer, unassigned) [Compound 73A]
100 to 1000	C[C@@H]1COCCN1c1cc2c3c(nn(-c4cc[nH]n4)c3n1)CCN(S(=O)(=O)C1CC1)C2C1CC1 (stereo partly drawn) [Compound 143, (3R)-4-(6-cyclopropyl-7-(cyclopropylsulfonyl)-2-(1H-pyrazol-3-yl)-6,7,8,9-tetrahydro-2H-1,2,3,7-tetraazabenzo[cd]-azulen-4-yl)-3-methylmorpholine]
100 to 1000	C[C@@H]1COCCN1c1cc2c3c(n1)c(-c1cc[nH]n1)nn3CCC(=O)N2[C@@H](C)CC(F)(F)F [Compound 111A, 4-((R)-3-methylmorpholino)-2-(1H-pyrazol-3-yl)-6-((S)-4,4,4-trifluorobutan-2-yl)-8,9-dihydro-1,3,6,9a-tetraazabenzo[cd]azulene-7(6H)-one]
100 to 1000	C[C@@H]1COCCN1c1cc2c3c(n1)c(-c1cc[nH]n1)nn3CCNC2 [Compound 51, (R)-4-(2-(1H-pyrazol-3-yl)-6,7,8,9-tetrahydro-1,3,7,9a-tetraazabenzo[cd]azulen-4-yl)-3-methylmorpholine]
100 to 1000	CC1c2cc(N3CCOC[C@H]3C)nc3c2c(nn3-c2cc[nH]n2)CCN1CC(F)F (single isomer, unassigned) [Compound 45A]
> 1000	C[C@@H]1COCCN1c1cc2c3c(n1)c(-c1cc[nH]n1)nn3CCC2(O)c1cnn(C)c1 (single isomer, unassigned) [Compound 74A]
100 to 1000	CC1c2cc(N3CCOC[C@H]3C)nc3c2c(nn3-c2cc[nH]n2)CCN1S(C)(=N)=O (single isomer, unassigned) [Compound 46A]
< 100	C[C@@H]1COCCN1c1cc2c3c(nn(-c4cc[nH]n4)c3n1)CCN(S(=O)(=O)C(F)(F)F)C2 [Compound 25, (R)-4-(2-(1H-pyrazol-3-yl)-7-((trifluoromethyl)sulfonyl)-6,7,8,9-tetrahydro-2H-1,2,3,7-tetraazabenzo[cd]azulen-4-yl)-3-methylmorpholine]
100 to 1000	C[C@@H]1COCCN1c1cc2c3c(nn(-c4cc[nH]n4)c3n1)CCN(S(=O)(=O)C1COC1)C2 [Compound 26, (R)-3-methyl-4-(7-(oxetan-3-ylsulfonyl)-2-(1H-pyrazol-3-yl)-6,7,8,9-tetrahydro-2H-1,2,3,7-tetraazabenzo[cd]azulen-4-yl)morpholine]
< 100	C[C@@H]1COCCN1c1cc2c3c(nn(-c4cc[nH]n4)c3n1)CCOC2C(F)F (stereo partly drawn) [Compound 148, 6-(difluoromethyl)-4-((R)-3-methylmorpholino)-2-(1H-pyrazol-3-yl)-2,6,8,9-tetrahydro-7-oxa-1,2,3-triazabenzo[cd]azulene]
100 to 1000	C[C@@H]1COCCN1c1cc2c3c(n1)c(-c1cc[nH]n1)nn3CCC(=O)N2[C@H](C)CC(F)(F)F [Compound 111B, 4-((R)-3-methylmorpholino)-2-(1H-pyrazol-3-yl)-6-((R)-4,4,4-trifluorobutan-2-yl)-8,9-dihydro-1,3,6,9a-tetraazabenzo[cd]azulene-7(6H)-one]
100 to 1000	CC1c2cc(N3CCOC[C@H]3C)nc3c(-c4cc[nH]n4)nn(c23)CCN1S(C)(=O)=O (stereo partly drawn) [Compound 60, (3R)-3-methyl-4-(6-methyl-7-(methylsulfonyl)-2-(1H-pyrazol-3-yl)-6,7,8,9-tetrahydro-1,3,7,9a-tetraazabenzo[cd]azulen-4-yl)morpholine]
100 to 1000	CC1c2cc(N3CCOC[C@H]3C)nc3c2c(nn3-c2cc[nH]n2)CCN1S(N)(=O)=O (stereo partly drawn) [Compound 150, 6-methyl-4-((R)-3-methylmorpholino)-2-(1H-pyrazol-3-yl)-2,6,8,9-tetrahydro-7H-1,2,3,7-tetraazabenzene[cd]azulene-7-sulfonamide]
< 100	CC(C)C1c2cc(N3CCOC[C@H]3C)nc3c2c(nn3-c2cc[nH]n2)CCN1S(C)(=O)=O (single isomer, unassigned) [Compound 140A]

same assay, conditions: Homo sapiens, LoVo, 120 h, read-out: LoVo IC50 (nM), LoVo cells, 2,000 cells per well, 5 days incubation, CellTiter-Glo; maximum concentration 10 µM, 9 concentrations

SMILES	IC50 [nM]
C[C@@H]1COCCN1c1cc2c3c(nn(-c4cc[nH]n4)c3n1)CCC(=O)N2C1(CF)CC1 [Compound 80, (R)-6-(1-(fluoromethyl)cyclopropyl)-4-(3-methylmorpholinyl)-2-(1H-pyrazol-3-yl)-2,6,8,9-tetrahydro-7H-1,2,3,6-tetraazabenzo[cd]azulene-7-one]	< 100
C[C@@H]1COCCN1c1cc2c3c(nn(-c4cc[nH]n4)c3n1)CCC(=O)N2C12CC(C1)C2 [Compound 76, (R)-6-(bicyclo[1.1.1]pentan-1-yl)-4-(3-methylmorpholinyl)-2-(1H-pyrazol-3-yl)-2,6,8,9-tetrahydro-7H-1,2,3,6-tetraazabenzo[cd]azulene-7-one]	< 100

same assay, conditions: LoVo cells, 2,000 cells per well, 5 days incubation, CellTiter-Glo; maximum concentration 10 µM, 9 concentrations; read-out: LoVo IC50

IC50 [nM]	SMILES
100 to 1000	CC1c2cc(N3CCOC[C@H]3C)nc3c2c(nn3-c2cc[nH]n2)CCN1CC(F)F (single isomer, unassigned) [Compound 45B]
100 to 1000	CC1c2cc(N3CCOC[C@H]3C)nc3c2c(nn3-c2cc[nH]n2)CCN1CC1COC1 (single isomer, unassigned) [Compound 44B]
100 to 1000	CC(C)C1c2cc(N3CCOC[C@H]3C)nc3c2c(nn3-c2cc[nH]n2)CCN1S(C)(=O)=O (single isomer, unassigned) [Compound 140B]
> 1000	C[C@@H]1COCCN1c1cc2c3c(n1)c(-c1cc[nH]n1)nn3CCC2(O)C1CCOCC1 (single isomer, unassigned) [Compound 73B]
100 to 1000	CC1c2cc(N3CCOC[C@H]3C)nc3c2c(nn3-c2cc[nH]n2)CCN1S(C)(=N)=O (single isomer, unassigned) [Compound 46D]
100 to 1000	CC1c2cc(N3CCOC[C@H]3C)nc3c2c(nn3-c2cc[nH]n2)CCN1S(C)(=N)=O (single isomer, unassigned) [Compound 46B]
> 1000	C[C@@H]1COCCN1c1cc2c3c(n1)c(-c1cc[nH]n1)nn3CCC2(O)c1cnn(C)c1 (single isomer, unassigned) [Compound 74B]
100 to 1000	CC1c2cc(N3CCOC[C@H]3C)nc3c(-c4cc[nH]n4)nn(c23)CCN1C (single isomer, unassigned) [Compound 59B]

Source: EP4692090A1 (Shanghai Fosun Pharmaceutical (Group) Co., Ltd., priority 2023, dated 2024)
